Experimental data published in ChEMBL document CHEMBL5244202, “Structural evolution of toll-like receptor 7/8 agonists from imidazoquinolines to imidazoles” (RSC Med Chem, 2021).
Blank lines part the entries; values can stand above or below the molecule they belong to.

Experiments:
[1] = target: T1, Toll-like receptor 8 (Homo sapiens, UniProt Q9NR97); assay: Agonist activity at human TLR8 (27 to 287 residues) in HEK-Blue hTLR8 cells assessed as induction of NFkappaB by SEAP reporter gene based spectrophotometry assay; format: cell-based
T1 sequence (Q9NR97 whole entry): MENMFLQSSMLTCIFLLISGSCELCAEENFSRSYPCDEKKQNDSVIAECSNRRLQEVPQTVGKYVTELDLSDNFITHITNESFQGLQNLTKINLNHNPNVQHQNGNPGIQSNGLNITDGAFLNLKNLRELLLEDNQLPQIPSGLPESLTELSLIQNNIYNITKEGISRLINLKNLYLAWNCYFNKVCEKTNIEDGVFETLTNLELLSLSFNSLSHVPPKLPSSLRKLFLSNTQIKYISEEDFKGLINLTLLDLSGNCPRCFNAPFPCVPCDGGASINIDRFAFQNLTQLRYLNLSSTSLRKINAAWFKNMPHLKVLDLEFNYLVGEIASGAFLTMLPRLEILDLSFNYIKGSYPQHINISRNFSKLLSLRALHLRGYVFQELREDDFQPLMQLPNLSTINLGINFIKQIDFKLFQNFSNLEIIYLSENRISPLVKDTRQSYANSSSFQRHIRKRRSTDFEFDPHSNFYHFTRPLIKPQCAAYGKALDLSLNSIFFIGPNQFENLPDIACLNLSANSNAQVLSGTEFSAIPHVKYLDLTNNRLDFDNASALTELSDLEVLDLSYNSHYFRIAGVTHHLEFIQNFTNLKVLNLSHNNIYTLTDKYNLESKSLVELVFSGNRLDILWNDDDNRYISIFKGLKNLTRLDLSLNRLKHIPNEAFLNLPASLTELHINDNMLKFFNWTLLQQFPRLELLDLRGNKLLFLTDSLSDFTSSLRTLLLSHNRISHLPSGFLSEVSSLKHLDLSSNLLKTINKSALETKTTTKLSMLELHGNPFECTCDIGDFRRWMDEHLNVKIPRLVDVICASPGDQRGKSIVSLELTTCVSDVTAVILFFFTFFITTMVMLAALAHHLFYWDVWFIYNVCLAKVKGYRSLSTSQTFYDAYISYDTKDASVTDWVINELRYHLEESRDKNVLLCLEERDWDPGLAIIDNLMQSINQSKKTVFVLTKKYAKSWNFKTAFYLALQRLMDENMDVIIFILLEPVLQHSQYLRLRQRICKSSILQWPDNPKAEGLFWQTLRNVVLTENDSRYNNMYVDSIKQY

[2] = target: T1, Toll-like receptor 8; assay: Agonist activity at human TLR8 in HEK-Blue hTLR8 cells assessed as induction of SEAP production using nitrophenyl phosphate as substrate incubated for 20 hrs by microplate reader analysis; format: cell-based
[3] = target: T2, Toll-like receptor 7 (Homo sapiens, UniProt Q9NYK1); assay: Agonist activity at recombinant human TLR7 transfected in HEK293 cells assessed as induction of SEAP production incubated overnight by SEAP reporter gene based assay; format: cell-based
T2 sequence (Q9NYK1 whole entry): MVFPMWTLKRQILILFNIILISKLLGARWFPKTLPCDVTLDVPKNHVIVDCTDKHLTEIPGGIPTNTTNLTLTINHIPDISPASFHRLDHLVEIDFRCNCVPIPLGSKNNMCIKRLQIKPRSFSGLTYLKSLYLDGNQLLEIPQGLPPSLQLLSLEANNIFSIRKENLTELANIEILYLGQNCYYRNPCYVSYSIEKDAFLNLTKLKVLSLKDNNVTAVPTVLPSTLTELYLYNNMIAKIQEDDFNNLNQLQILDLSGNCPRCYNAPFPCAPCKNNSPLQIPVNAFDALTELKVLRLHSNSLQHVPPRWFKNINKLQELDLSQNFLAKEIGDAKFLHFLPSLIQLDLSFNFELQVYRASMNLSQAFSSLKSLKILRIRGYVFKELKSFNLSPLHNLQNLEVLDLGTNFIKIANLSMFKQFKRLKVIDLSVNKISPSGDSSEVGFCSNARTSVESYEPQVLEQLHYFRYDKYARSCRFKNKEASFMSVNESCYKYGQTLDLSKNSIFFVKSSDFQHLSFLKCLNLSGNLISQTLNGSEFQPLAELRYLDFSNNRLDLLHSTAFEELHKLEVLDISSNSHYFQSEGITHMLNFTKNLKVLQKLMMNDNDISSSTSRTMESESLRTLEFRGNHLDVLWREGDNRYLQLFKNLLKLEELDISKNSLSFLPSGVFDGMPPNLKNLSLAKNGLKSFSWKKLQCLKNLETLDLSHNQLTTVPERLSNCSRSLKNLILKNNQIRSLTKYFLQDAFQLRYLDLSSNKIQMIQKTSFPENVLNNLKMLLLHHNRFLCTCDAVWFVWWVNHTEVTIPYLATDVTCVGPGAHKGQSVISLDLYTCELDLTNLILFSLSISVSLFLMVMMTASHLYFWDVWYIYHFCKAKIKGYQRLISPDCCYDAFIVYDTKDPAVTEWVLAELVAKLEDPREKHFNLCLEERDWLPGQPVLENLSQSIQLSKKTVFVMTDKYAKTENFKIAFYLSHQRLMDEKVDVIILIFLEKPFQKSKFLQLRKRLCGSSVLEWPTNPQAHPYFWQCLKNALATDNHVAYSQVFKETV

[4] = Induction of IFN production in C3H/HeJ mouse splenocytes incubated for 18 hrs; format: functional; conditions: Splenocyte, read-out: MEC
[5] = target: T3, Toll-like receptor 7 (Homo sapiens) (UniProt Q9NYK1); assay: (§1) Agonist activity at TLR7 (unknown origin); conditions: filed as agonist
T3 sequence (whole entry): T2 sequence (Q9NYK1 whole entry)

[6] = target: T4, Toll-like receptor 8 (Homo sapiens) (UniProt Q9NR97); assay: (§2) Agonist activity at TLR8 (unknown origin)
T4 sequence (whole entry): T1 sequence (Q9NR97 whole entry)

[7] = target: T2, Toll-like receptor 7; assay: as §1
[8] = target: T1, Toll-like receptor 8; assay: as §2
[9] = species: Homo sapiens; assay: Selectivity index, ratio of EC50 for agonist activity at TLR8 (unknown origin) to EC50 for agonist activity at TLR7 (unknown origin)
[10] = target: T1, Toll-like receptor 8; assay: Agonist activity at human TLR8 in HEK-Blue hTLR8 cells incubated for 24 hrs by quanti-blue reagent based analysis; format: cell-based
[11] = target: T2, Toll-like receptor 7; assay: Agonist activity at human TLR7 in HEK-Blue hTLR7 cells incubated for 24 hrs by quanti-blue reagent based analysis; format: cell-based
[12] = target: T4, Toll-like receptor 8 (Homo sapiens); assay: Agonist activity at human TLR8 transfected in HEK293 cells incubated for 6 hrs by luciferase based analysis; format: cell-based; conditions: filed as agonist
[13] = target: T3, Toll-like receptor 7 (Homo sapiens); assay: Agonist activity at human TLR7 transfected in HEK293 cells incubated for 6 hrs by luciferase based analysis; format: cell-based; conditions: filed as agonist

EC50 [1]: 100000 nM
Structure (SMILES): COc1cc2ccccc2nc1N

EC50 [2]: 63.1 nM
EC50 [3]: < 5.89 nM
Structure (SMILES): CCC[C@@H](CO)Nc1nc(N)nc(C)c1Cc1ccc(CN2CCCC2)cc1OC

EC50 [1]: 100000 nM
Structure (SMILES): CC(C)Oc1cc2ccccc2nc1N

Structure (SMILES): CCCCOc1nc(N)c2[nH]c(=O)n(Cc3ccccc3)c2n1
minimal effective concentration [4]: 0.001 µM

EC50 [1]: 100000 nM
Structure (SMILES): CCOc1cc2ccccc2nc1N

Structure (SMILES): CCCCSc1nc(N)c2nc(O)n(Cc3ccccc3)c2n1
minimal effective concentration [4]: 0.01 µM

EC50 [2]: 2510 nM
EC50 [3]: < 5.01 nM
Structure (SMILES): CCC[C@@H](CCO)Nc1nc(N)nc(C)c1Cc1ccc(CN(C)CCO)cc1OC

MEC [5]: 2 µM
MEC [6]: > 25 µM
Structure (SMILES): COc1ccc2cc1O/C=C\CCOc1nc(N)c3nc(O)n(c3n1)C2

EC50 [2]: 100 nM
EC50 [3]: < 6.31 nM
Structure (SMILES): CCC[C@@H](CO)Nc1nc(N)nc(C)c1Cc1ccc(CN2CCN(C)CC2)cc1OC

Structure (SMILES): CCCCNc1nc(N)c2nc(O)n(Cc3ccccc3)c2n1
minimal effective concentration [4]: 0.1 µM

EC50 [7]: 30 nM
EC50 [8]: 15000 nM
Ratio EC50 [9]: 500
Structure (SMILES): CCOC(=O)C1=Cc2ccc(-c3cccc(C#N)c3)cc2N=C(N)C1

Structure (SMILES): CCCCc1nc(N)c2nc(O)n(Cc3ccccc3)c2n1
minimal effective concentration [4]: 0.03 µM

MEC [5]: 0.18 µM
MEC [6]: > 25 µM
Structure (SMILES): COc1cc2cc(c1)O/C=C\CCOc1nc(N)c3nc(O)n(c3n1)C2

EC50 [10]: 293000 nM
EC50 [11]: 454 nM
Structure (SMILES): CCCCOc1nc(N)c2[nH]c(C#N)c(Cc3cnc(CN4CCCC4)s3)c2n1

MEC [12]: 0.03 µM
MEC [13]: 0.5 µM
Structure (SMILES): CCCC[C@@H](CO)Nc1nc(N)nc2ccsc12
